Like-named read-outs stand apart in the source and are kept apart here.
Experiments:
GlmU [1] = target: T1, GlmU (Mycobacterium tuberculosis, UniProt P9WMN3); test: biochemical; type: binding
GlmU [2] = target: T1, GlmU; test: acetyltransferase inhibition assay; type: biochemical
His374 = His374 (UniProt position 374, GTKVPHLTYVG); test: kinetics; details: 30 °C (stated for the acetyltransferase assay; not restated for the pH-rate studies); constant-ionic-strength three-component buffer (value not stated); 10 mM MgCl2; Vmax conditions (enzyme saturated with Ac-CoA and GlcN-1P), Mg2+ present
GlmU [3] = target: T1, GlmU; type: biochemical
GlmU [4] = target: T1, GlmU; test: acetyltransferase dead-end inhibition, initial velocities versus GlcN-1P; type: biochemical; details: read-out: Kis
GlmU [5] = target: T1, GlmU; test: acetyltransferase DTP absorbance assay (CoA-SH release); type: biochemical
GlmU [6] = target: T1, GlmU; test: biochemical; details: read-out: Kis
[7] = system: N[C@H]1[C@@H](OP(=O)(O)O)O[C@H](CO)[C@@H](O)[C@@H]1O; test: purified protein; details: co-substrate Ac-CoA saturating, pH 7.5, 30 °C, 10 mM MgCl2
[8] = system: CC(=O)SCCNC(=O)CCNC(=O)[C@H](O)C(C)(C)COP(=O)(O)OP(=O)(O)OC[C@H]1O[C@@H](n2cnc3c(N)ncnc32)[C@H](O)[C@@H]1OP(=O)(O)O; test: purified protein; details: co-substrate GlcN-1P saturating, pH 7.5, 30 °C, 10 mM MgCl2
[9] = system: O=c1ccn([C@@H]2O[C@H](COP(=O)(O)OP(=O)(O)OP(=O)(O)O)[C@@H](O)[C@H]2O)c(=O)[nH]1; test: purified protein; details: co-substrate GlcNAc-1P saturating, pH 7.5, 30 °C, 10 mM MgCl2, uridylyltransferase site
[10] = system: N[C@H]1[C@@H](OP(=O)(O)OP(=O)(O)OC[C@H]2O[C@@H](n3ccc(=O)[nH]c3=O)[C@H](O)[C@@H]2O)O[C@H](CO)[C@@H](O)[C@@H]1O; test: purified protein; details: co-substrate Ac-CoA saturating, pH 7.5, 30 °C, 10 mM MgCl2, acetyltransferase site
[11] = system: CC(=O)N[C@H]1[C@@H](OP(=O)(O)O)O[C@H](CO)[C@@H](O)[C@@H]1O; test: purified protein; details: co-substrate UTP saturating, pH 7.5, 30 °C, 10 mM MgCl2, uridylyltransferase site
GlmU [12] = target: T1, GlmU; test: acetyltransferase dead-end inhibition, initial velocities versus Ac-CoA; type: biochemical; details: read-out: Kis
[13] = Km concentrations of Ac-CoA and GlcN-1P, pH 7.5, 30 °C, 10 mM MgCl2, acetyltransferase site, read-out: no inhibition at ≤10 mM

T1 sequence (P9WMN3 whole entry, looked up): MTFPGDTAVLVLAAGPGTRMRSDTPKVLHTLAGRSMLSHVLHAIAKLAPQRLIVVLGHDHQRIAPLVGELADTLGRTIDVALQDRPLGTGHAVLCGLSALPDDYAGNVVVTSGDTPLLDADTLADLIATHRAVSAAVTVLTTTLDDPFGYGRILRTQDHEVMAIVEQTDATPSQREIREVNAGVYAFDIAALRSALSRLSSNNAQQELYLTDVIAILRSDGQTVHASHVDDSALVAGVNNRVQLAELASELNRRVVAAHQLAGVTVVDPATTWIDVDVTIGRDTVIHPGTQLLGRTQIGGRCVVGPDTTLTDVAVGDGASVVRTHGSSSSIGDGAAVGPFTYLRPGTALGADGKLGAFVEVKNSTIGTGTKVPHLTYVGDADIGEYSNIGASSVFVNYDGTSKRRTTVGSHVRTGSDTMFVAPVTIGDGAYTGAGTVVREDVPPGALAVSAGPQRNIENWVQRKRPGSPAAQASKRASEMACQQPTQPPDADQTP

With `CCC(=O)SCCNC(=O)CCNC(=O)[C@H](O)C(C)(C)COP(=O)(O)OP(=O)(O)OC[C@H]1O[C@@H](n2cnc3c(N)ncnc32)[C@H](O)[C@@H]1OP(=O)(O)O` [Pro-CoA] the Kd (GlmU [1]; read-out: Kd (μM) ^b) was 500 ± 100 µM.

Work on `O=P(O)(O)OC[C@H]1OC(O)[C@@H](O)[C@@H](O)[C@@H]1O` (stereo partly shown) [mannose 6-phosphate] yielded an IC50 (GlmU [2]; [13]) of over 10 mM.

“Bifunctional N-acetyltransferase/uridylyltransferase GlmU (Mycobacterium tuberculosis H37Rv)” showed a pKa (His374) of 6.7 ± 0.1.

`CC(C)C(=O)SCCNC(=O)CCNC(=O)[C@H](O)C(C)(C)COP(=O)(O)OP(=O)(O)OC[C@H]1O[C@@H](n2cnc3c(N)ncnc32)[C@H](O)[C@@H]1OP(=O)(O)O` [IsoBu-CoA] showed an IC50 (GlmU [2]; read-out: IC50 (mM) ^b, ^c) of 2 ± 0.21 mM.

`N[C@H]1C(O)O[C@H](COP(=O)(O)O)[C@@H](O)[C@@H]1O` (stereo partly shown) [GlcN-6P] was tested, and the IC50 (GlmU [2]; Km concentrations of Ac-CoA and GlcN-1P, pH 7.5, 30 °C, 10 mM MgCl2, read-out: IC50 (mM) ^b, ^c) was 10 ± 0.89 mM.

Compound `CC(=O)SCCNC(=O)CCNC(=O)[C@H](O)C(C)(C)COP(=O)(O)OP(=O)(O)OC[C@H]1O[C@@H](n2cnc3c(N)ncnc32)[C@H](O)[C@@H]1OP(=O)(O)O` [Ac-CoA] has a Kd (GlmU [1]; read-out: Kd (μM) ^b) of 250 ± 25 µM.

`C/C=C/C(=O)SCCNC(=O)CCNC(=O)[C@H](O)C(C)(C)COP(=O)(O)OP(=O)(O)OC[C@H]1O[C@@H](n2cnc3c(N)ncnc32)[C@H](O)[C@@H]1OP(=O)(O)O` [Cro-CoA] gave an IC50 (GlmU [2]; read-out: IC50 (mM) ^b, ^c) of 1 ± 0.15 mM.

For `N[C@H]1[C@@H](OP(=O)(O)O)O[C@H](CO)[C@@H](O)[C@@H]1O` [GlcN-1P], the Kd (GlmU [3]) was “in the presence of high concentrations of the second substrate, the Kd values for the complex”.

For `CC(=O)N[C@@H]1C(O)O[C@H](CO)[C@@H](O)[C@@H]1O` (stereo partly shown) [N-acetyl-mannosamine], the IC50 (GlmU [2]; [13]) was over 10 mM.

Work on `O=P(O)(O)O[C@H]1O[C@H](CO)[C@@H](O)[C@H](O)[C@H]1O` [Glc-1P] yielded a Kd (GlmU [1]; read-out: Kd) of 1700 ± 400 µM, an IC50 (GlmU [2]; read-out: IC50 (mM) ^b, ^c) of 5 ± 0.65 mM and a Ki (GlmU [4]) of 4.1 ± 0.6 mM.

`O=P(O)(O)OC[C@H]1OC(O)[C@H](O)[C@@H](O)[C@@H]1O` (stereo partly shown) [glucose 6-phosphate] showed an IC50 (GlmU [2]; [13]) of over 10 mM.

`CC(C)(COP(=O)(O)OP(=O)(O)OC[C@H]1O[C@@H](n2cnc3c(N)ncnc32)[C@H](O)[C@@H]1OP(=O)(O)O)[C@@H](O)C(=O)NCCC(=O)NCCS` [CoA-SH] showed an IC50 (GlmU [5]) of 0.3 ± 0.01 mM, a Kd (GlmU [1]; read-out: Kd (mM) ^c) of 700 ± 130 µM and a Ki (GlmU [6]) of 150 ± 15 µM.

GlmU (Mycobacterium tuberculosis H37Rv) showed a Km [7] of 290 ± 31 µM, a Km [8] of 250 ± 8 µM and a Km [9] of 8 ± 0.8 µM. It also gave a kcat [9] of 120 ± 3 s⁻¹, a kcat/Km [9] of 1.5e+07 ± 3.8e+06 M⁻¹ s⁻¹ and a Km [10] of 9.7 ± 0.6 mM. The kcat [10] was 2.04 ± 0.06 s⁻¹, the kcat/Km [10] was 220 ± 170 M⁻¹ s⁻¹ and the Km [11] was 30 ± 5 µM.

Work on `O=P(O)(O)O[C@H]1O[C@H](CO)[C@@H](O)[C@H](O)[C@@H]1O` [mannose 1-phosphate] yielded an IC50 (GlmU [2]; read-out: no inhibition at ≤10 mM) of over 10 mM.

`CC(=O)N[C@H]1C(O)O[C@H](CO)[C@H](O)[C@@H]1O` (stereo partly shown) [N-acetyl-galactosamine] gave an IC50 (GlmU [2]; [13]) of over 10 mM.

Work on `CC(C)(COP(=O)(O)OP(=O)(O)OC[C@H]1O[C@@H](n2cnc3c(N)ncnc32)[C@H](O)[C@@H]1OP(=O)(O)O)[C@@H](O)C(=O)NCCC(=O)NCCSC(=O)CC(=O)O` [Mlo-CoA] yielded an IC50 (GlmU [2]; read-out: IC50 (mM) ^b, ^c) of 2 ± 0.59 mM.

`CCCC(=O)SCCNC(=O)CCNC(=O)[C@H](O)C(C)(C)COP(=O)(O)OP(=O)(O)OC[C@H]1O[C@@H](n2cnc3c(N)ncnc32)[C@H](O)[C@@H]1OP(=O)(O)O` [Bu-CoA] was tested, and the Ki (GlmU [12]) was 350 ± 30 µM, the Kd (GlmU [1]; read-out: Kd (mM) ^c) was 3800 ± 800 µM and the IC50 (GlmU [2]; read-out: IC50 (mM) ^b, ^c) was 1 ± 0.03 mM.

Reference: paper PMC6011181, “The Mechanism of Acetyl Transfer Catalyzed by Mycobacterium tuberculosis GlmU” (Biochemistry, 2018)
